SMILES strings stand for the structures.

This is an account of results in patent US20230133958A1, “COMPOUNDS USEFUL IN MODULATING EGFR AND PI3K” (Mekanistic Therapeutics LLC, priority 2021, published 2023).

The target in one assay is EGFR (Homo sapiens, UniProt P00533). Nature of the assay: Z'-LYTE / Adapta biochemical kinase assay, EGFR. Particulars: concentration of 100 nM/liter; read-out: Percent Inhibition of target enzymes, EGFR. The text has this:
(§1) The Z′-LYTE® biochemical assay employs a fluorescence-based, coupled-enzyme format and is based on the differential sensitivity of phosphorylated and non-phosphorylated peptides to proteolytic cleavage. The peptide substrate is labeled with two fluorophores—one at each end—that make up a FRET pair. In the primary reaction, the kinase transfers the gamma-phosphate of ATP to a single tyrosine, serine or threonine residue in a synthetic FRET-peptide. In the secondary reaction, a site-specific protease recognizes and cleaves non-phosphorylated FRET-peptides. Phosphorylation of FRET-peptides suppresses cleavage by the Development Reagent. Cleavage disrupts FRET between the donor (i.e., coumarin) and acceptor (i.e., fluorescein) fluorophores on the FRET-peptide, whereas uncleaved, phosphorylated FRET-peptides maintain FRET. A ratiometric method, which calculates the ratio (the Emission Ratio) of donor emission to acceptor emission after excitation of the donor fluorophore at 400 nm, is used to quantitate reaction progress.
(§2) A significant benefit of this ratiometric method for quantitating reaction progress is the elimination of well-to-well variations in FRET-peptide concentration and signal intensities. As a result, the assay yields very high Z′-factor values (>0.7) at a low percent phosphorylation.
(§3) Both cleaved and uncleaved FRET-peptides contribute to the fluorescence signals and therefore to the Emission Ratio. The extent of phosphorylation of the FRET-peptide can be calculated from the Emission Ratio. The Emission Ratio will remain low if the FRET-peptide is phosphorylated (i.e., no kinase inhibition) and will be high if the FRET-peptide is non-phosphorylated (i.e., kinase inhibition).
(§4) Enzyme: The ADAPTA universal kinase assay is a homogenous, fluorescent based immunoassay for the detection of ADP. In contrast to ATP depletion assays, the ADAPTA assay is extremely sensitive to ADP formation such that a majority of the signal change occurs in the first 10-20% conversion of ATP to ADP. This makes the ADAPTA universal kinase assay ideally suited for use with low activity kinases.
(§5) The principle of the ADAPTA universal kinase assay is outlined below. The assay itself can be divided into two phases: a kinase reaction phase, and an ADP detection phase. In the kinase reaction phase, all components required for the kinase reaction are added to the well, and the reaction is allowed to incubate for 60 minutes. After the reaction, a detection solution consisting of a europium labeled anti-ADP antibody, an Alexa Fluor® 647 labeled ADP tracer, and EDTA (to stop the kinase reaction) is added to the assay well. ADP formed by the kinase reaction (in the absence of an inhibitor) will displace the Alexa Fluor® 647 labeled ADP tracer from the antibody, resulting in a decrease in the TR-FRET signal. In the presence of an inhibitor, the amount of ADP formed by the kinase reaction is reduced, and the resulting intact antibody-tracer interaction results in a high TR-FRET signal.
(§6) Test Compounds: The Test Compounds are screened in 1% DMSO (final) in the well. For 10 point titrations, 3-fold serial dilutions are conducted from the starting concentration of the customer’s choosing.
(§7) Peptide/Kinase Mixtures: All Peptide/Kinase Mixtures are diluted to a 2X working concentration in the appropriate Kinase Buffer.
(§8) ATP Solution: All ATP Solutions are diluted to a 4X working concentration in Kinase Buffer (50 mM HEPES pH 7.5, 0.01% BRIJ-35, 10 mM MgCl2,1 mM EGTA). ATP Km apparent is previously determined using a Z′-LYTE® assay.
(§9) Development Reagent Solution: The Development Reagent is diluted in Development Buffer.
(§10) Assay Protocol: Bar-coded Corning, low volume NBS, black 384-wellplate (Corning Cat. #4514) 1. 2.5 µL - 4X Test Compound or 100 nL 100X plus 2.4 µL kinase buffer. 2. 5 µL - 2X Peptide/Kinase Mixture. 3. 2.5 µL - 4X ATP Solution. 4. 30-second plate shake. 5. 60-minute Kinase Reaction incubation at room temperature. 6. 5 µL - Development Reagent Solution. 7. […]

A further assay addresses PI3Kα (Homo sapiens, UniProt P42336). Nature of the assay: Z'-LYTE / Adapta biochemical kinase assay, PI3Kα. Particulars: concentration of 100 nM/liter; read-out: Percent Inhibition of target enzymes, PI3K A.
From the text: as §1, §2, §3, §4, §5, §6, §7, §8, §9, §10

Another assay deals with DNA-PK (Homo sapiens, UniProt P78527). Nature of the assay: Z'-LYTE / Adapta biochemical kinase assay, DNA-PK. Conditions: concentration of 100 nM/liter; read-out: Percent Inhibition of target enzymes, DNA-PK.
From the text: as §1, §2, §3, §4, §5, §6, §7, §8, §9, §10

EGFR, sequence (P00533 25-1210): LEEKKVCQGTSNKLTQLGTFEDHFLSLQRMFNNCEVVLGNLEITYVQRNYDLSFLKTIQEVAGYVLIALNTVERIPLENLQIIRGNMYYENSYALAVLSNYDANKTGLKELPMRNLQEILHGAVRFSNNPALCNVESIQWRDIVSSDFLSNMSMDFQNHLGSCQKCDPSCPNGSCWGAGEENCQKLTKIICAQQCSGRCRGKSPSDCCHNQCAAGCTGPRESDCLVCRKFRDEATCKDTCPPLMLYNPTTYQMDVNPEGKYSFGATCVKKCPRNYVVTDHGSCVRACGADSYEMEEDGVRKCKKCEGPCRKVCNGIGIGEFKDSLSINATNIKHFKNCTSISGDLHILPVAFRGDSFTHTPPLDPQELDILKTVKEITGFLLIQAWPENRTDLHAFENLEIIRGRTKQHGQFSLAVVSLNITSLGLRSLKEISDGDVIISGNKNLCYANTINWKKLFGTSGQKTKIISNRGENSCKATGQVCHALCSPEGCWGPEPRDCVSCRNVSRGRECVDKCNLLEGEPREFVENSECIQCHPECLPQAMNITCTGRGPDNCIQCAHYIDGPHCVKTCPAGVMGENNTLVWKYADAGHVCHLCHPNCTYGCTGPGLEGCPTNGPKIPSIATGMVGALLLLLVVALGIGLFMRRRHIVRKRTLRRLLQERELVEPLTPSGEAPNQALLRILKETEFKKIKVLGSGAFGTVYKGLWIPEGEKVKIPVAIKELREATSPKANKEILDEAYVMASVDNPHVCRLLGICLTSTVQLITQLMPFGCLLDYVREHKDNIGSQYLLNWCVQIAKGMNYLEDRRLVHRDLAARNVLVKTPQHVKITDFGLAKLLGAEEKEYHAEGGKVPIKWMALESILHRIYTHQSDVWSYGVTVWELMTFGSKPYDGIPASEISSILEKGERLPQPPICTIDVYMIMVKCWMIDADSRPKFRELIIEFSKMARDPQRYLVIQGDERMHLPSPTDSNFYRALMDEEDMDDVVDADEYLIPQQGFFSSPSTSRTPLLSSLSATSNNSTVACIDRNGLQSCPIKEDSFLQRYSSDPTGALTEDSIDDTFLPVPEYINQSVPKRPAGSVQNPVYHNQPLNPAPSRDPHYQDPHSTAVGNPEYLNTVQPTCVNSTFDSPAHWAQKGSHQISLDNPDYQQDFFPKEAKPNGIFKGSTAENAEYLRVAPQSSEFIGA
PI3Kα, sequence (P42336 whole entry): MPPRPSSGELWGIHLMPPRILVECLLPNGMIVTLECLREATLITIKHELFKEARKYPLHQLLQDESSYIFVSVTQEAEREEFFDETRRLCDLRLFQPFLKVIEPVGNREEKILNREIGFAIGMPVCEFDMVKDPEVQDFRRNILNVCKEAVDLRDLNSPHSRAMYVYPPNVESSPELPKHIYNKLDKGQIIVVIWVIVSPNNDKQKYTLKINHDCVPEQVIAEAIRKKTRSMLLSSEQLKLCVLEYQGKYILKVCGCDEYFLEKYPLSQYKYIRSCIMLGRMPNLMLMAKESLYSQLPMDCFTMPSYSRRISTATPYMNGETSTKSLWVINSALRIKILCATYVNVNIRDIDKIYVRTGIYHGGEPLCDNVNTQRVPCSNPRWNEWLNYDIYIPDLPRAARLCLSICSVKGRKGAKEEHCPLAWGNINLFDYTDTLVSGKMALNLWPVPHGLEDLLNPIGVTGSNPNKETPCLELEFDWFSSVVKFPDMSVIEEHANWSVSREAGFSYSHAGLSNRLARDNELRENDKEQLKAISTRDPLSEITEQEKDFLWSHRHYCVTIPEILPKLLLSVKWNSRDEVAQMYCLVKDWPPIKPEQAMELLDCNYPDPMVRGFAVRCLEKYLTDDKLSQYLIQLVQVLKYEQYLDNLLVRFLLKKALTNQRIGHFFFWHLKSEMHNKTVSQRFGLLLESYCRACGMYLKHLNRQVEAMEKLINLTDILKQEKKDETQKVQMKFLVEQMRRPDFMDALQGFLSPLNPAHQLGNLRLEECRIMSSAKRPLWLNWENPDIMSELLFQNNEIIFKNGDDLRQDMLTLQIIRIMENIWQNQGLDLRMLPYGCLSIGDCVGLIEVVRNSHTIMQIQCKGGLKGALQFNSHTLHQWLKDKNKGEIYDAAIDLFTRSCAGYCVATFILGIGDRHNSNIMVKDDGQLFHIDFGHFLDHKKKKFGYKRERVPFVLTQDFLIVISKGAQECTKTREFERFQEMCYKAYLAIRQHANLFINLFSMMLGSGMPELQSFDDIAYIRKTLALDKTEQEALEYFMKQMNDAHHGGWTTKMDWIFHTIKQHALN
PI3Kα, sequence (P27986 whole entry partner): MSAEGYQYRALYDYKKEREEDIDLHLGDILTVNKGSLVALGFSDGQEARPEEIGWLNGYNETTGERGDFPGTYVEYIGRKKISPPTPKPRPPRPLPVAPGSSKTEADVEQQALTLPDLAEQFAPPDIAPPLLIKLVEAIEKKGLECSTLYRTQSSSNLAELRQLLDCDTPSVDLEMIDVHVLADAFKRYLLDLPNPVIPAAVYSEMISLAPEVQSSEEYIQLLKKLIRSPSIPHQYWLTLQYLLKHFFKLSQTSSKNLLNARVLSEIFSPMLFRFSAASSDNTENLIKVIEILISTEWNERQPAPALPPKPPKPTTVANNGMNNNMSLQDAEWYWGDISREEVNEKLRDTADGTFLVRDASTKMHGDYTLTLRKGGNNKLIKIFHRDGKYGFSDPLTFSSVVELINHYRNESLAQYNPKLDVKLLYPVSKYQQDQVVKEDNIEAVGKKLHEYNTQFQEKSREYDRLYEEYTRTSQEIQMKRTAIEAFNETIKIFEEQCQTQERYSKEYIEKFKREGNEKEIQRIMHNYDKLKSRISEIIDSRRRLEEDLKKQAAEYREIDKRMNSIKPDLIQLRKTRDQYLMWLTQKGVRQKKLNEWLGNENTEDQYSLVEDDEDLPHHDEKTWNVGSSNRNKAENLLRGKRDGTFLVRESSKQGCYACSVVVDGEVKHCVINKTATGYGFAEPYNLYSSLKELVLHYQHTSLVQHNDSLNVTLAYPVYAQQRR

For orientation: inhibition means the relative decrease from the control value, in per cent. In the case of `Cc1ncc(-c2ccc3ncnc(Nc4cccc(Cl)c4F)c3c2)cc1NS(C)(=O)=O` [Compound 1, N-[5-[4-(3-chloro-2-fluoro-anilino)quinazolin-6-yl]-2-methyl-3-pyridyl] methanesulfonamide], the inhibition at 0.1 µM was more than 90% on EGFR, 80 to 90% at PI3Kα and more than 90% at DNA-PK.

For the compound `COc1ncc(-c2ccc3ncnc(Nc4cccc(Cl)c4F)c3c2)cc1NS(C)(=O)=O` [Compound 2, N-[5-[4-(3-chloro-2-fluoro-anilino)quinazolin-6-yl]-2-methoxy-3-pyridyl] methanesulfonamide], the inhibition at 0.1 µM at EGFR is more than 90%; at PI3Kα, more than 90%; on DNA-PK, 80 to 90%.

Turning to `CS(=O)(=O)Nc1cncc(-c2ccc3ncnc(Nc4cccc(Cl)c4F)c3c2)c1` [Compound 3, N-[5-[4-(3-chloro-2-fluoro-anilino)quinazolin-6-yl]-3-pyridyl] methanesulfonamide], the inhibition at 0.1 µM at EGFR is more than 90%; at PI3Kα, 10 to 80%; at DNA-PK, 80 to 90%.
